Among the data in patent publication US10093678B2, “Azaspiro derivatives as TRPM8 antagonists” (RaQualia Pharma Inc., priority 2014, dated 2018) are IC50 values, retold here.

Where a name gives a salt, the structure may show the parent alone.

T1 sequence (Q7Z2W7 whole entry): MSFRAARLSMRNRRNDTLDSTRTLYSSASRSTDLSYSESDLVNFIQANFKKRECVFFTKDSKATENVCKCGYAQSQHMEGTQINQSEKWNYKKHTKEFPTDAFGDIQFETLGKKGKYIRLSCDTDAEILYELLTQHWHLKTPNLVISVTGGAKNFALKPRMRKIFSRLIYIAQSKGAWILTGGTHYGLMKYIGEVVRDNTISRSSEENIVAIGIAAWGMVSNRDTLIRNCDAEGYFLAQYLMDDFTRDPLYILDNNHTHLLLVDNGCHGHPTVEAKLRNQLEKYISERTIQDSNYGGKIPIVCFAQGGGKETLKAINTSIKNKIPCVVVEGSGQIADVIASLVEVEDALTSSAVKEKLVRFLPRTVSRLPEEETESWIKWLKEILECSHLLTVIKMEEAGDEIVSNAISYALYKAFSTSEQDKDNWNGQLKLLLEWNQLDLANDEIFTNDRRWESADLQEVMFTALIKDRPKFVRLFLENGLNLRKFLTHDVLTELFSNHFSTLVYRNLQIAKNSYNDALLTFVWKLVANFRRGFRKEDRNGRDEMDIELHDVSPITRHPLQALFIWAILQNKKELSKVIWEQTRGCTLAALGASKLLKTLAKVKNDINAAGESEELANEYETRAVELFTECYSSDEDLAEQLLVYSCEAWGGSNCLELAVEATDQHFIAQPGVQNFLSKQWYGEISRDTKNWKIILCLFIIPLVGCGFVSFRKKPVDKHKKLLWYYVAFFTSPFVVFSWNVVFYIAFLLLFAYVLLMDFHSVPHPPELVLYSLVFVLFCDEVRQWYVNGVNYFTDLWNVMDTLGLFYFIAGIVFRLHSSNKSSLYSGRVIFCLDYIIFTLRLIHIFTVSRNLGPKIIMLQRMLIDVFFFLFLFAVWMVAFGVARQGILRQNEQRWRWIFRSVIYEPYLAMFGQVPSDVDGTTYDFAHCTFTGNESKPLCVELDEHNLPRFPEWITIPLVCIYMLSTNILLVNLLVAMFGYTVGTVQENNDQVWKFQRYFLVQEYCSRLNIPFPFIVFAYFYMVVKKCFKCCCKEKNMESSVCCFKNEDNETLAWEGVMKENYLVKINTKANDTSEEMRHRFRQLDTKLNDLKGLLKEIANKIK

The experiment addresses T1, human TRPM8 (Homo sapiens, UniProt Q7Z2W7).
T1 construct: expressed in transfected cells; host or cells: HEK293
Kind of experiment: Menthol-induced Ca2+ influx in HEK293 cells stably expressing human TRPM8. Format: cell-based. The following applies: 30 microM menthol-induced Ca2+ influx, read-out: IC50 against TRPM8. The procedure: Measurement of the Menthol-Induced Ca^2+ Influx in HEK293 Cells Stably Expressing Human TRPM8
A cell-based Ca^2+ influx assay using HEK293 cells stably expressing human TRPM8 is used to identify the activity of compounds.
HEK293 cells stably expressing human TRPM8 are grown in T175 flasks at 37° C. in a 5% CO2 humidified incubator to about 80% confluence. Media composition consists of Dulbecco's Modified Eagle Medium (high glucose), 10% fetal calf serum (FCS), 100 units/mLPenicillin, 100 microg/mL Streptomycin and 600 microg/mL Geneticine. At 24 hours prior to assay, cells are seeded in poly-D-lysine coated 384-well plates (BD FALCON) at a density of 30,000 cells per well in culture medium and grown overnight in 5% CO2 at 37° C. On the assay day, growth media is removed and cells are loaded with 0.5 microM Fluo4-AM (Molecular Probes) and 0.005% Pluronic F-127 dissolved in assay buffer (Hank's balanced salt solution (HBSS), 19.4 mM HEPES pH7.4, 2.5 mM Probenecid) for 1 hour at room temperature. After washing with assay buffer, the cells are preincubated with various concentrations of the compounds for 5 min. The changes in intracellular calcium concentration by addition of 30 microM menthol are monitored by the cell imaging technology by Hamamatsu Photonics Functional Drug Screening System (FDSS).
The IC50 values for compounds of the present invention are determined from 11-point dose-response studies. Curves are generated using the average of duplicate wells for each data point. Finally, the IC50 values are calculated with the best-fit dose curve determined by XLfit (ID Business Solutions Ltd.).
For the compound `O=C(CN1C(=O)NC2(CCC(F)(F)CC2)C1=O)c1ccc(-c2ccnc3[nH]ccc23)cc1` [Example 6-13], the IC50 – broadly, the concentration needed to halve the response being measured – was below 100 nM.

As for `Cc1cc(-n2c(C)cc(C(=O)CN3C(=O)OC4(CCC(C(F)(F)F)CC4)C3=O)c2C)no1` (centres unmarked) [Example 1-5], the IC50 was below 500 nM.

For the compound `O=C(CN1C(=O)NC2(CCC(F)(F)CC2)C1=O)c1ccc(-c2cccnc2)c(Cl)c1` [Example 13-24], the IC50 is below 100 nM.

`Cc1cc(C(=O)CN2C(=O)NC3(CCC(F)(F)CC3)C2=O)n(C)c1-c1ccccc1` [Example 4-3]: the IC50 was below 100 nM.

Consider `O=C(CN1C(=O)NC2(CCC(F)(F)CC2)C1=O)c1ccc(-c2nccn3ccnc23)cc1` [Example 6-85], for which the IC50 is below 500 nM.

As for `Cn1c(C(=O)CN2C(=O)NC3(CCC(F)(F)CC3)C2=O)cnc1-c1ccccc1` [Example 4-11], the half-maximal inhibitory concentration (IC50) is below 500 nM.

`Cc1c(C(=O)CN2C(=O)NC3(CCC(F)(F)CC3)C2=O)cn(C)c1-c1cccnc1` [Example 16-26]: the IC50 was below 500 nM.

Regarding `O=C(CN1C(=O)NC2(CCC(F)(F)CC2)C1=O)c1ccc(-c2ccccc2CN2CCCC2)cc1` [Example 6-104], the IC50 was below 500 nM.

With `Cc1c(C(=O)CN2C(=O)NC3(CCC(F)(F)CC3)C2=O)ccn1-c1ccccc1` [Example 4-6], the IC50 is below 100 nM.

In the case of `Cc1cc(C(=O)CN2C(=O)NC3(CCC(F)(F)CC3)C2=O)ccc1-c1cncc(F)c1` [Example 13-8], the IC50 was below 100 nM.

For the compound `O=C(CN1C(=O)NC2(CCC(F)(F)CC2)C1=O)c1ccc(-n2ccc3cccnc32)cc1` [Example 19-17], the IC50 was below 100 nM.

Take `Cc1cc(C(=O)CN2C(=O)NC3(CCC(F)(F)CC3)C2=O)ccc1-c1cccc2ccncc12` [Example 13-15]: the IC50 is below 100 nM.

Turning to `O=C(CN1C(=O)NC2(CCC(F)(F)CC2)C1=O)c1ccc(-c2nccc3ccccc23)cc1` [Example 6-25], the IC50 was below 100 nM.

On to `Cc1cc(C(=O)CN2C(=O)NC3(CCC(F)(F)CC3)C2=O)c(C)n1-c1cccc(Cl)c1` [Example 3-7], for which the IC50 was below 100 nM.

`O=C(CN1C(=O)NC2(CCC(F)(F)CC2)C1=O)c1ccc(-c2nccc3occc23)cc1` [Example 6-31]: the IC50 was below 100 nM.

Take `Cc1sc(C(=O)CN2C(=O)NC3(CCC(F)(F)CC3)C2=O)c(C)c1-c1cncc(C(N)=O)c1` [Example 15-10]: the IC50 was below 500 nM.

For `CN(c1ccccn1)c1ccc(C(=O)CN2C(=O)NC3(CCCCC3)C2=O)cn1` [Example 19-2], the IC50 was below 100 nM.

`Cc1cnc(C)c(-c2ccc(C(=O)CN3CC4(CCC(F)(F)CC4)OC3=O)cc2)n1` [Example 7-17]: the IC50 was below 500 nM.

As to `Cc1ccncc1-c1ccc(C(=O)CN2CC3(CCCCC3)OC2=O)cc1` [Example 13-51], the IC50 is below 100 nM.

As to `Cc1cncc(-c2ccc(C(=O)CN3C(=O)NC4(CCC(F)(F)CC4)C3=O)cc2)n1` [Example 6-28], the IC50 is below 100 nM.

Take `Cc1cc(C(=O)CN2C(=O)NC3(CCC(F)(F)CC3)C2=O)c(C)n1-c1cccnc1` [Example 3-9]: the IC50 was below 100 nM.

Take `O=C(CN1CC2(CCC(F)(F)CC2)OC1=O)c1ccc(-n2cnc3ccccc32)cc1` [Example 22-4]: the IC50 was below 100 nM.

For the compound `CC(=O)c1cccc(-c2c(C)cc(C(=O)CN3C(=O)NC4(CCC(F)(F)CC4)C3=O)n2C)c1` [Example 16-20], the IC50 was below 100 nM.

`Cc1cncc(-n2c(C)cc(C(=O)CN3C(=O)NC4(CCCCC4)C3=O)c2C)n1` [Example 3-3]: the IC50 is below 100 nM.

With `O=C(CN1C(=O)NC2(CCC(F)(F)CC2)C1=O)c1ccc(N2C(=O)COc3ccccc32)nc1` [Example 19-13], the IC50 is below 100 nM.

For `Cc1cc(C(=O)CN2C(=O)NC3(CCC(F)(F)CC3)C2=O)ccc1-c1cccnc1` [Example 13-7], the IC50 was below 100 nM.

`O=C(CN1C(=O)NC2(CCC(F)(F)CC2)C1=O)c1ccc(-c2ccnc3[nH]ncc23)nc1` [Example 9-26]: the IC50 is below 500 nM.

For the compound `NCc1ccccc1-c1ccc(C(=O)CN2C(=O)NC3(CCC(F)(F)CC3)C2=O)cc1` [Example 6-55, 3-(2-(2′-(aminomethyl)-[1,1′-biphenyl]-4-yl)-2-oxoethyl)-8,8-difluoro-1,3-diazaspiro[4.5]decane-2,4-dione hydrochloride], the IC50 was below 100 nM.

Take `Cc1ccncc1-c1ccc(C(=O)CN2CC3(CCC(F)(F)CC3)OC2=O)cc1` [Example 13-53]: the IC50 was below 100 nM.

On to `O=C(CN1C(=O)NC2(CCC(F)(F)CC2)C1=O)c1ccc(N2C(=O)Cc3ccccc32)cc1` [Example 19-26], for which the IC50 was below 100 nM.

On to `Cc1sc(C(=O)CN2C(=O)NC3(CCC(F)(F)CC3)C2=O)c(C)c1-c1cccc(C(N)=O)c1` [Example 15-7], for which the half-inhibitory concentration (IC50) is below 100 nM.

On to `N#Cc1nccnc1-c1ccc(C(=O)CN2C(=O)NC3(CCC(F)(F)CC3)C2=O)c(F)c1` [Example 8-8], for which the IC50 is below 100 nM.

Regarding `O=C(CN1C(=O)NC2(CCC(F)(F)CC2)C1=O)c1ccc(-c2nccnc2CO)cc1F` [Example 8-9], the IC50 was below 100 nM.

For the compound `O=C(CN1C(=O)NC2(CCC(F)(F)CC2)C1=O)c1ccc(-c2cccc3nccn23)cc1` [Example 6-21], the IC50 was below 100 nM.

As for `Cc1ccccc1-c1ccc(C(=O)CN2C(=O)NC3(CCCCC3)C2=O)cc1` [Example 13-4], the IC50 is below 100 nM.

`Cc1nc2cccnc2n1-c1ccc(C(=O)CN2C(=O)NC3(CCC(F)(F)CC3)C2=O)cc1` [Example 5-10]: the IC50 was below 10 nM.

As for `O=C(CN1C(=O)NC2(CCC(F)(F)CC2)C1=O)c1ccc(-c2ccnc3[nH]ccc23)nc1` [Example 9-22], the IC50 is below 100 nM.

On to `O=C(CN1C(=O)NC2(CCC(F)(F)CC2)C1=O)c1ccc(-c2ccccc2CO)c(Cl)c1` [Example 13-27], for which the IC50 is below 100 nM.

For `Cc1cncc(-n2c(C)cc(C(=O)CN3C(=O)NC4(CC5CCC4C5)C3=O)c2C)c1` (centres unmarked) [Example 3-10], the IC50 is below 100 nM.

As to `O=C(CN1C(=O)NC2(CCC(F)(F)CC2)C1=O)c1ccc(-c2cncc3[nH]ccc23)cc1` [Example 6-5], the IC50 is below 10 nM.

For `Cc1ccccc1-c1ccc(C(=O)CN2C(=O)NC3(CCC(F)(F)CC3)C2=O)n1C` [Example 16-32], the IC50 is below 500 nM.

Consider `COc1ncccc1-c1cnc(C(=O)CN2C(=O)NC3(CCC(F)(F)CC3)C2=O)cn1` [Example 12-4], for which the IC50 was below 100 nM.

For the compound `Cc1ncccc1-c1cnc(C(=O)CN2C(=O)NC3(CCC(F)(F)CC3)C2=O)cn1` [Example 12-1], the IC50 is below 10 nM.

Turning to `N#Cc1ncccc1-c1ccc(C(=O)CN2C(=O)NC3(CCC(F)(F)CC3)C2=O)cc1F` [Example 8-4], the IC50 is below 100 nM.

Turning to `Cc1cc(C(=O)CN2C(=O)NC3(CCC(F)(F)CC3)C2=O)c(C)n1-c1noc2ccccc12` [Example 3-18], the IC50 is below 100 nM.

Take `CN(c1ccc(C(=O)CN2C(=O)NC3(CCC(F)(F)CC3)C2=O)cc1)c1ccccn1` [Example 19-16]: the IC50 was below 100 nM.

Take `Cc1nc(C(=O)CN2C(=O)NC3(CCC(F)(F)CC3)C2=O)sc1-c1cncc(C#N)c1` [Example 18-13]: the IC50 was below 500 nM.

On to `O=C(CN1C(=O)NC2(CCCCC2)C1=O)c1ccc(OCCNc2ccccc2)nc1` [Example 20-4], for which the IC50 is below 500 nM.

On to `Cc1nc2cccnc2n1-c1ccc(C(=O)CN2C(=O)NC3(CCCCC3)C2=O)cn1` [Example 5-33], for which the IC50 is below 100 nM.

On to `CN(c1cccc(C(F)(F)F)c1)c1ccc(C(=O)CN2C(=O)NC3(CCC(F)(F)CC3)C2=O)cn1` [Example 19-15], for which the IC50 was below 500 nM.

Take `Cc1nc(C(=O)CN2C(=O)NC3(CCC(F)(F)CC3)C2=O)n(C)c1-c1cccc(F)c1` [Example 17-6]: the IC50 is below 10 nM.

Regarding `Cc1cc(C(=O)CN2C(=O)NC3(CCC(F)(F)CC3)C2=O)sc1-c1cccc2cccnc12` [Example 14-20], the IC50 was below 500 nM.

For `Cc1c(C(=O)CN2C(=O)NC3(CCC(F)(F)CC3)C2=O)cn(C)c1-c1cccc(C#N)c1` [Example 16-22], the IC50 is below 100 nM.

Turning to `COc1ccncc1-c1sc(C(=O)CN2C(=O)NC3(CCC(F)(F)CC3)C2=O)cc1C` [Example 14-16], the IC50 is below 100 nM.

In the case of `Cc1cc(-n2c(C)cc(C(=O)CN3C(=O)OC4(CCCCC4)C3=O)c2C)no1` [Example 1-3], the IC50 is below 100 nM.

In the case of `O=C(CN1C(=O)NC2(CCC(F)(F)CC2)C1=O)c1ccc(-c2ccnc3[nH]ncc23)cc1` [Example 6-1], the IC50 is below 10 nM.

Consider `Cc1ccncc1-c1sc(C(=O)CN2C(=O)NC3(CCC(F)(F)CC3)C2=O)nc1C` [Example 18-2], for which the IC50 is below 10 nM.

Take `CN(c1ccccc1)c1ccc(C(=O)CN2C(=O)NC3(CCCCC3)C2=O)cn1` [Example 19-5]: the IC50 was below 100 nM.

On to `O=C(CN1C(=O)NC2(CCC(F)(F)CC2)C1=O)c1ccc(-c2cccc3c2CC(O)C3)cc1` (centres unmarked) [Example 6-49], for which the IC50 was below 500 nM.
